For 14 molecules, IC50 results are on record in BindingDB's records for doi:10.1111/cbdd.12902 (Shahid Bahonar University of Kerman, 2017).

The IC50 is the midpoint of a concentration-inhibition curve. Low values mean inhibition by little substance, high ones a need for much substance.

Experiment [1] concerns the target Acetylcholinesterase (Electrophorus electricus, UniProt O42275). As to the kind of experiment: Cholinesterases Inhibition Assay. On the procedure: (§1) The stock solutions of the target compounds were prepared in a mixture of DMSO (1 ml) and ethanol (9 ml) and diluted with 0.1 MKH2PO4/K2HPO4 buffer (pH 8.0) to obtain final concentrations. […] of substrate (acetylthiocholine iodide 0.075 m) was added to the test solution to obtain final concentration of […]. All experiments were performed based on the previously described method.[Nadri et al., Bioorg. […] Spectrophotometric measurements were performed on a UV Unico double-beam spectrophotometer. The same method was also taken for BuChE inhibition assay.

Experiment [2] has as its target Carboxylic ester hydrolase (Equus caballus, UniProt Q9N1N9). As to the kind of experiment: Cholinesterases Inhibition Assay. As for the experimental part: as §1

Sequence of Acetylcholinesterase (O42275 whole entry): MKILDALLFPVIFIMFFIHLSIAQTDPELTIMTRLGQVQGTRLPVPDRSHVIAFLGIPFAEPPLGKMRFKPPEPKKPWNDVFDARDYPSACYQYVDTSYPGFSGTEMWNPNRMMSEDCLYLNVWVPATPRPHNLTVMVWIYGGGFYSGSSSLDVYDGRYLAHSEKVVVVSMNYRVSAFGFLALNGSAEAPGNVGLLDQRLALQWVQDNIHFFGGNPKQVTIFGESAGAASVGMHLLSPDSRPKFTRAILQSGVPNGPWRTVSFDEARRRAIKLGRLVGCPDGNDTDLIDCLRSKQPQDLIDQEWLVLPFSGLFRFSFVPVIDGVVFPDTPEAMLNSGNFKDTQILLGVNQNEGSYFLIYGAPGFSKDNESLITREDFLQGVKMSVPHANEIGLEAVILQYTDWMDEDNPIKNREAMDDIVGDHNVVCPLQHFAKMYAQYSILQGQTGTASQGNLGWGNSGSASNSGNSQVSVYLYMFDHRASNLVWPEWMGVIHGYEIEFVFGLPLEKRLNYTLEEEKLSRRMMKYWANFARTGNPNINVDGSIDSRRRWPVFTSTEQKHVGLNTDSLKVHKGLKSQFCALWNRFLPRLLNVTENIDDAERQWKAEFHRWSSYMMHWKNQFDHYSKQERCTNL
Sequence of Carboxylic ester hydrolase (Q9N1N9 whole entry): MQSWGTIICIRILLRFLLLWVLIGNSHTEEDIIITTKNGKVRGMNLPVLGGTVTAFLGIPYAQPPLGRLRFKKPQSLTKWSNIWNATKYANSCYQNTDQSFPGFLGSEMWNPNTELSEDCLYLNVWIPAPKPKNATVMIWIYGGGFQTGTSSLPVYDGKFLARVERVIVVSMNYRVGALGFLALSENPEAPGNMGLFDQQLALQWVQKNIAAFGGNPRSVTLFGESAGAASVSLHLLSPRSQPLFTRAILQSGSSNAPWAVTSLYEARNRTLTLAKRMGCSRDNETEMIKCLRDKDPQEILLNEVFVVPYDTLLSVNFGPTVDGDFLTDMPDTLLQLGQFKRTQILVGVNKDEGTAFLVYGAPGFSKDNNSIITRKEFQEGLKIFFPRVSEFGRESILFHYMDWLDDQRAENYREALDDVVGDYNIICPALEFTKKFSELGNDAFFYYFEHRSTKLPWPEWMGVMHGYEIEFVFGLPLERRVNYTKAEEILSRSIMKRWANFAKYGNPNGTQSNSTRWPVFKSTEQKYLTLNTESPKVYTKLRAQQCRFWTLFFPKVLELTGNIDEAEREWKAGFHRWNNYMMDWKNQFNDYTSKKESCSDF

`c1ccc2oc(-c3ccc(CN4CCOCC4)cc3)nc2c1` [2-(4-(Morpholinomethyl)phenyl)benzo[d]oxazole (6c)]: the IC50 was 20.1 µM in experiment [1] and over 100 µM in experiment [2].

Consider `c1ccc(CNCc2ccc(-c3nc4ccccc4o3)cc2)cc1` [(4-(Benzo[d]oxazol-2-yl)phenyl)-Nbenzylmethylamine (6k)], for which the IC50 in experiment [1] is 25.4 µM; in experiment [2] it was over 100 µM.

`CN1CCN(Cc2ccc(-c3nc4ccccc4o3)cc2)CC1` [2-(4-((4-Methylpiperazin-1-yl)methyl)phenyl)benzo[d]oxazole (6f)]: the IC50 in experiment [1] is 62.2 µM; in experiment [2] it was over 100 µM.

As for `c1ccc2oc(-c3ccc(CN4CCCCC4)cc3)nc2c1` [2-(4-((Piperidin-1-yl)methyl)phenyl)benzo[d]oxazole (6a)], the IC50 is 1.03 µM in experiment [1] and 6.6 µM in experiment [2].

For `c1ccc(CC2CCN(Cc3ccc(-c4nc5ccccc5o4)cc3)CC2)cc1` [2-(4-((4-Benzylpiperidin-1-yl)methyl)phenyl)benzo[d]oxazole (6b)], the IC50 in experiment [1] and in experiment [2] was over 100 µM throughout.

`c1ccc2oc(-c3ccc(CN4CCCC4)cc3)nc2c1` [2-(4-((Pyrrolidin-1-yl)methyl)phenyl)benzo[d]oxazole (6j)]: the values for the IC50 in experiment [1] and in experiment [2] were 1.35 µM and 8.1 µM, respectively.

As for `c1ccc2oc(-c3ccc(CN4CCSCC4)cc3)nc2c1` [2-(4-(Thiomorpholinomethyl)phenyl)benzo[d]oxazole (6d)], the IC50 in experiment [1] was found to be 2.55 µM; in experiment [2], 16.9 µM.

Take `c1ccc(N2CCN(Cc3ccc(-c4nc5ccccc5o4)cc3)CC2)cc1` [2-(4-((4-Phenylpiperazine-1-yl)methyl)phenyl)benzo[d]oxazole (6h)]: the IC50 in experiment [1] and in experiment [2] was over 100 µM in each case.

Consider `CCN(Cc1ccccc1)Cc1ccc(-c2nc3ccccc3o2)cc1` [N-((4-(benzo[d]oxazol-2-yl)phenyl)methyl)-N-benzylethanamine (6m)], for which the half-maximal inhibitory concentration (IC50) in experiment [1] is 56.4 µM; in experiment [2], over 100 µM.

Turning to `c1ccc(CN2CCN(Cc3ccc(-c4nc5ccccc5o4)cc3)CC2)cc1` [2-(4-((4-Benzylpiperazin-1-yl)methyl)phenyl)benzo[d]oxazole (6i)], the IC50 in experiment [1] and in experiment [2] was over 100 µM each time.

For `c1ccc2oc(-c3ccc(CN4CCNCC4)cc3)nc2c1` [2-(4-((Piperazin-1-yl)methyl)phenyl)benzo[d]oxazole (6e)], the IC50 amounted to 3.45 µM in experiment [1] and 21.5 µM in experiment [2].

As to `c1ccc(CN2CCC(NCc3ccc(-c4nc5ccccc5o4)cc3)CC2)cc1` [N-((4-(benzo[d]oxazol-2-yl)phenyl)methyl)-1-benzylpiperidin-4-amine (6n)], the IC50 in experiment [1] stood at 7.76 µM; in experiment [2], 50.1 µM.

For `CN(Cc1ccccc1)Cc1ccc(-c2nc3ccccc3o2)cc1` [(4-(Benzo[d]oxazol-2-yl)phenyl)-N-benzyl-N-methylmethanamine (6l)], the IC50 in experiment [1] is 30.8 µM; in experiment [2] it was over 100 µM.

Take `CCN1CCN(Cc2ccc(-c3nc4ccccc4o3)cc2)CC1` [2-(4-((4-Ethylpiperazin-1-yl)methyl)phenyl)benzo[d]oxazole (6g)]: the half-maximal inhibitory concentration (IC50) was 38.2 µM in experiment [1] and over 100 µM in experiment [2].
